Reference: patent US20220340849A1, “BRAIN-CHIP MODELING NEURODEGENERATION AND NEUROINFLAMMATION IN PARKINSON'S DISEASE” (EMULATE, INC., priority 2019, published 2022)

What was measured:
[1] = system: brain channel cells of the SN Brain-Chip (dopaminergic neurons); test: Immunostaining of phospho-αSyn129 / αSyn accumulation in the brain channel; type: cell-based, human; conditions: 10 mM dose, compared to cells exposed to αSyn fibrils alone
Experimental: Thus, the capability of exogenously added fibrils was accessed for accumulation and processing cells of a SN Brain-Chip. Recombinant αSyn fibrils (4 μg/mL) was added in the culture medium of the brain channel under continuous flow, on Day 2 of the culture (FIG. 57A).
After three- and six-days upon-exposure to αSyn fibrils (D5 and D8 of the experiment, respectively), the exposed chips underwent immunostaining in order to determine the abundance of phosphoSer129-alph α-synuclein (phospho-αSyn129), a post-translational modification characteristic of pathogenic αSyn species^47,48.
Addition of exogenous alpha-synuclein to brain channel. Human recombinant αSyn monomers and pre-formed fibrils were purchased from Abcam (Monomers; ab218819, Fibrils; ab218819), and were diluted in DopaNeurons Media to a final concentration of 4 μg/mL. […]
For treatment, freshly prepared monomers and fibrils were used. […] Effluents, lysates, and staining were collected/fixed at day three- and day six post-exposure (D5 and D8 respectively), and were analyzed by a microplate reader, ELISA kits, and immunofluorescence microscopy.
Morphological analysis. […] Images were acquired with either an Olympus fluorescence microscope (IX83) or an inverted laser-scanning confocal microscope, e.g. Zeiss confocal microscope (AxiovertZ1 LSM880).

BBB in the SN Brain-Chip = test: Permeability assays (apparent permeability, Papp) on the SN Brain-Chip; type: cell-based, human; conditions: αSyn fibril damaged SN Brain-Chips, trehalose added via brain channel on day 5, read after 72 hours (D8)
Experimental: Thus, BBB permeability assays were measured on the SN Brain-Chip after exposure to αSyn fibrils, as compared to exposure to αSyn monomers or PBS.
Permeability Assays, e.g., evaluate the establishment and integrity of the barrier. Apparent permeability (Papp) of the barrier was calculated by following a previously described method^81. […] After 24 hrs, effluent from both channels was sampled to determine the dye's concentration (amount) that had diffused through the membrane. […] Then, the following equation was used to calculate apparent paracellular permeability (Papp) based on a standard curve and using the following formula:

[2] = system: endothelial cells of the SN Brain-Chip; test: Morphological analysis of tight junctions in endothelial cells in the αSyn fibril model; type: cell-based, human
Experimental: The junction protein expression of Claudin-5 was visualized by immunofluorescence staining with a Claudin-5 antibody and DAPI for cell nuclei. Scale bars: 50 μm.
Morphological analysis. Immunocytochemistry, including immunofluorescence microscopy, was conducted as previously described (Pediaditakis et al., 2020). Brief examples of methods are described herein. Brain-Chips were fixed with 4% paraformaldehyde in PBS for 10 min and then washed with PBS. Cells were blocked on the Brain-Chip in phosphate-buffered saline (PBS) containing 10% donkey serum (Sigma) at 4° C. overnight. Immunostaining was performed after permeabilization in PBS with 0.1% Saponin and blocking for 30 min in 10% donkey serum in PBS with 0.1% Saponin. Immunostaining was performed with specific primary antibodies (anti-TH, anti-GFAP, anti-NG2, anti-TMEM119, anti-pSer129-αSyn, anti-Cleaved Caspase-3, anti-CD68; Abcam), (anti-MAP2, and anti-CD31; Thermo Fisher Scientific), (anti-Claudin-1, anti-Claudin-5, anti-Occludin, anti-ZO-1; Invitrogen), in a 1:100 dilution in 10% donkey serum in PBS with 0.1% Saponin and incubated overnight on the Brain-Chip at 4° C. […] Images were acquired with either an Olympus fluorescence microscope (IX83) or an inverted laser-scanning confocal microscope, e.g. Zeiss confocal microscope (AxiovertZ1 LSM880).

HMC3 cells = conditions: 10 ng/ml, 24 h; cited from earlier work
[3] = system: neurons, astrocytes and microglia in the brain channel of the Brain-Chip; type: cell-based, human
Experimental: Neuroinflammation incorporates a broad spectrum of complex cellular responses that often contribute to the pathogenesis and progression of various neurological disorders. To study the effects of neuroinflammatory specific signals on the Brain-Chip, TNF-α was perfused within the brain channel at a pathophysiological concentration of 100 ng/mL (FIG. 36A and FIG. 35). […] In addition, excessive TNF-α levels have been reported to have an inhibitory effect on glutamate transporters, resulting in increased glutamate concentration in the CNS parenchyma, linking the central inflammatory response to glutamate-mediated toxicity. To test this hypothesis in this system, secreted glutamate levels were measured by enzyme-linked immunosorbent assay (ELISA).
In one embodiment, a model of neuroinflammation was provided by treating cells as a neurovascular unit (brain side) with TNF-alpha added to the brain channel. TNFα, was previously reported to mediate neuroinflammation and detected in patients with neurological. disorders. On days 0 and 1, cells were seeded on the top and bottom channel of one embodiment of a Brain-Chip, respectively. The Brain-Chip is then allowed to mature under flow conditions for 4 more days and on day 5, cells on the brain side are treated with TNFα, for 48 hrs. During exposure, effluent is collected, and on the last day of the experiment, cells in chips may be imaged, stained for immunohistochemistry and imaged. In some embodiments, cells are lysed for transcriptomic analysis. Thus, modeling neuroinflammation comprises Brain chips and methods of use where TNF-a and/or other inflammatory compounds are added to the Brain channel. In some embodiments, such neuroinflamed brain chips are used in methods for developing treatments in addition for testing compounds for efficacy and safety.
(§1) TNF-α treatment. To mimic the inflammatory condition, cells were treated on either brain or vascular channel with TNF-α (Tumor Necrosis Factor-α, R&D Systems; 210-TA). The treatment was initiated after the formation of a confluent monolayer at ˜5 days in culture. Cells were further incubated in a culturing medium, including TNF-α (100 ng/ml) up to 48 hours.
Morphological analysis. Immunocytochemistry, including immunofluorescence microscopy, was conducted as previously described (Pediaditakis et al., 2020). Brief examples of methods are described herein. Brain-Chips were fixed with 4% paraformaldehyde in PBS for 10 min and then washed with PBS. Cells were blocked on the Brain-Chip in phosphate-buffered saline (PBS) containing 10% donkey serum (Sigma) at 4° C. overnight. […] Images were acquired with either an Olympus fluorescence microscope (IX83) or an inverted laser-scanning confocal microscope, e.g. Zeiss confocal microscope (AxiovertZ1 LSM880).

[4] = system: Brain-Chip brain channel cells; test: Secreted cytokines (MSD V-PLEX) and glutamate in brain channel media of the TNF-α treated Brain-Chip; type: cell-based, human
Experimental: To determine whether the level of other inflammatory cytokines increases in this TNF-α model, levels of IFNγ, interleukin-1β (IL-1β) and IL-6, were measured following two days of exposure within the brain channel media. These cytokines are associated with the increase of BBB permeability.
In one embodiment, chips were seeded with human iPS-derived glutamatergic and GABAergic neurons (NeuCyte) at a density of 2×10^6 cells/mL and 0.75×10^6 cells/mL respectively, co-cultured with human primary microglia (ATCC; CRL3304) at a density of 1×10^5 cells/mL, human primary astrocytes (NeuCyte), and primary pericytes (Sciencell; 1200) at a density of 1×10^5 cells/mL, using “seeding medium” (NeuCyte), and incubated overnight. The next day, human iPS-derived Brain Microvascular Endothelial cells were seeded in the vascular channel at a density of 14-16×10^6 cells/mL using human serum-free endothelial cell medium supplemented with 5% human serum from platelet-poor human plasma (Sigma) and allowed to attach to the membrane overnight. Chips were then connected to the culture module. At this time, the medium supplying the brain channel was switched to maintenance medium (Neucyte), and the serum of the vascular medium was lowered to 2%. Chips were maintained under constant perfusion at 60 μL/hr through all chips' brain and vascular channels until day 7. Two additional commercial endothelial cell sources were used in experiments. Human primary endothelial cells (Cell Systems) and hCMEC/D3 (Millipore) were cultured in media according to the manufacturer's instructions.
as §1
ELISA analysis. The levels of IFNγ, IL-1β, and IL-6 were measured by M.S.D. 96-well plate Human Pro-Inflammatory V-PLEX Human Pro-Inflammatory Assay kits. The secreted levels of Glutamate were measured by Glutamate Assay Kit (Fluorometric) (Abcam; ab138883).

[5] = system: Blood-Brain Barrier of the Brain-Chip; test: BBB permeability to 3 kDa dextran in the TNF-α treated Brain-Chip; type: cell-based, human
Experimental: To directly measure how BBB permeability changed over time in response to TNFα, the transport of 3-kDa Cascade Blue dextran was evaluated across the BBB. Fluorescent dextran molecule was introduced in the vascular channel. After 24 hrs and 48 hrs of exposure, the amount of fluorescent dextran collected in the Brain-side was measured.
as §1
Permeability Assays, e.g., evaluate the establishment and integrity of the barrier. Apparent permeability (Papp) of the barrier was calculated by following a previously described method^81. Briefly, 100 μg mL^−1 (0.1 mg/mL) of dextran (3 kDa, e.g. Cascade Blue) and/or 20 μg mL^−1 of Lucifer (0.5 kDa) tracers were dosed (flowed) through the vascular channels for 24 hrs. After 24 hrs, effluent from both channels was sampled to determine the dye's concentration (amount) that had diffused through the membrane. Concentration of the dextran and Lucifer tracers in the outlet samples from both vascular and brain channels was determined by using BioTek (BioTek Instruments, Inc., Winooski, Vt., USA). […]
Here, SA is the surface area of sections of the channels that overlap (0.17 cm^2), QR and QD are the fluid flow rates in the dosing and receiving channels respectively, in units of cm^3/s, CR,0 and CD,0 are the recovered concentrations in the dosing and receiving channels respectively, in any consistent units. IgG permeability was also evaluated after dosing the vascular channel and measuring the IgG content on the brain channel. Detection and quantitation of serum immunoglobulin G (IgG1; Abcam) was performed using the ELISA kit (Abcam), after 24 hrs of perfusion.

[6] = system: iPS-derived brain endothelial cells; test: Immunofluorescence of ZO-1 and ICAM-1 in the vascular channel of the TNF-α treated Brain-Chip; type: cell-based, human
Experimental: BBB permeability assays were done on the Brain-Chip upon exposure to TNF-α compared to the untreated group.
Morphological analysis. Immunocytochemistry, including immunofluorescence microscopy, was conducted as previously described (Pediaditakis et al., 2020). Brief examples of methods are described herein. Brain-Chips were fixed with 4% paraformaldehyde in PBS for 10 min and then washed with PBS. Cells were blocked on the Brain-Chip in phosphate-buffered saline (PBS) containing 10% donkey serum (Sigma) at 4° C. overnight. Immunostaining was performed after permeabilization in PBS with 0.1% Saponin and blocking for 30 min in 10% donkey serum in PBS with 0.1% Saponin. Immunostaining was performed with specific primary antibodies (anti-TH, anti-GFAP, anti-NG2, anti-TMEM119, anti-pSer129-αSyn, anti-Cleaved Caspase-3, anti-CD68; Abcam), (anti-MAP2, and anti-CD31; Thermo Fisher Scientific), (anti-Claudin-1, anti-Claudin-5, anti-Occludin, anti-ZO-1; Invitrogen), in a 1:100 dilution in 10% donkey serum in PBS with 0.1% Saponin and incubated overnight on the Brain-Chip at 4° C. Additional primary antibodies were MAP2 (Thermo Fisher Scientific; MA512826), VGLUT1 (Thermo Fisher Scientific; 48-2400), GFAP (Abcam; ab53554), NG2 (Abcam; ab83178), CD68 (Abcam; ab213363), ICAM-1 (R&D Systems; BBA3), ZO-1 (Thermo Fisher Scientific; 402200), GLUT1 (Thermo Fisher Scientific; SPM498). Fluorescently conjugated secondary antibodies with Alexa Fluor-488, Alexa Fluor-568, or Alexa Fluor-647 (Abcam) were then used when the primary antibodies are not conjugated, incubated in the dark for 2 hr at room temperature. Cells were then counterstained with DAPI nuclear stain. Images were acquired with either an Olympus fluorescence microscope (IX83) or an inverted laser-scanning confocal microscope, e.g. Zeiss confocal microscope (AxiovertZ1 LSM880).

[7] = TNF-α 100 ng/mL perfused within the brain channel, two days, vs untreated
[8] = TNF-α 100 ng/mL in brain channel (neuroinflammation), two days, vs untreated
[9] = TNF-α perfused within the vascular channel (systemic inflammation), two days, vs untreated
[10] = TNF-α 100 ng/mL within the vascular channel, vs control

## OC[C@H]1O[C@H](O[C@H]2O[C@H](CO)[C@@H](O)[C@H](O)[C@H]2O)[C@H](O)[C@@H](O)[C@@H]1O [trehalose, O-α,-d-glucopyranosyl-[1→1]-α-d-glucopyranoside]
[1]
  accumulation of αSyn within the cells of the brain channel: diminished the accumulation of αSyn
BBB in the SN Brain-Chip
  BBB permeability (3 kDa dextran): significantly decreased BBB permeability
[2]; αSyn fibril damaged SN Brain-Chips, trehalose treated, D8
  tight junctions (ZO-1, Claudin-5): rescuing damaged tight junctions
[2]; αSyn fibril model with or without trehalose treatment
  junction protein expression of ZO-1: restoration of junction protein expression of ZO-1

## IFN-gamma: cytokine used to activate HMC3 microglia cells
HMC3 cells
  markers of activated microglia MHCII, CD68 and CD11b: upregulated

## TNF-α
[3]; TNF-alpha 100 ng/ml
  microglia activation (phenotypic changes, phagocytosis of latex beads): activates microglia as shown by phenotypic changes and induction of phagocytosis
[3]; [7]
  proportion of the GFAP-positive cells: significantly increased
  proportion of the MAP2-positive cells: decreased
[3]; TNF-α 100 ng/mL, brain channel, two days of exposure
  activated microglia (CD68 expression): activated microglia were also observed
[4]; TNF-alpha, 24 and 48 hours
  IL-6 production, Brain chips with and without microglial cells: induced significant IL-6 production in both embodiments
[4]; TNF-alpha, after both 24 and 48 hours
  IL-6 secreted, Brain chips including microglial cells over those without: unexpected significant increase
[4]; TNF-α 100 ng/mL brain channel, two days, vs untreated
  secreted glutamate levels (ELISA), media of the brain channel: significantly higher
[4]; [8]
  level of IFNγ in brain channel media: significantly higher
  level of IL-1β in brain channel media: significantly higher
  level of IL-6 in brain channel media: significantly higher
[4]; TNF-α exposure, Brain-Chip without microglia
  level of IL-6 in brain channel media, absence of microglia: not stigmatically changed
[4]; [9]
  level of IFNγ in brain channel media: significantly higher levels
  level of IL-1β in brain channel media: significantly higher levels
  level of IL-6 in brain channel media: significantly higher levels
[5]; TNF-α 100 ng/mL in brain channel, 24 and 48 hrs, time dependent
  permeability to 3 kDa dextran: significantly increased permeability
[5]; TNF-α 100 ng/mL perfused within the vascular channel (systemic inflammation)
  permeability to 3 kDa dextran: significantly increased permeability
[5]; TNFα 100 ng/mL on the brain side, 24 hrs and 48 hrs
  transport through the BBB (apparent permeability) vs vehicle control: significantly increased by three times over the control
[6]; [10]
  expression of BBB tight junction protein ZO-1: significantly attenuated
  expression of ICAM-1: increased
[6]; TNF-α in brain channel, 48 hrs
  ZO-1 expression: loss of ZO-1
  intercellular adhesion molecule 1 (ICAM-1) expression: excessive increase
